Test results reported in ChEMBL document CHEMBL1201862, “PubChem BioAssay data set” (2004).
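Each compound was tested at five concentrations against cells in 96-well plates for 48 hours. The concentration for 50% growth inhibition is given as GI50.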 Active and inactive are the calls of the source. Rule as the data show it: active = GI50 up to about 1.1 µM and inactive = higher.

Columns and labels:
Test in all cases: NCI-60 cell line screen, 48 h
[1] = system: 786-0
[2] = system: A498
[3] = system: A549
[4] = system: ACHN
[5] = system: BT-549
[6] = system: CAKI-1
[7] = system: CCRF-CEM
[8] = system: COLO 205
[9] = system: DU-145
[10] = system: EKVX
[11] = system: HCC 2998
[12] = system: HCT-116
[13] = system: HCT-15
[14] = system: HL-60
[15] = system: HOP-62
[16] = system: HOP-92
[17] = system: HT-29
[18] = system: Hs-578T
[19] = system: IGROV-1
[20] = system: K562
[21] = system: KM12
[22] = system: LOX IMVI
[23] = system: M14
[24] = system: MCF7
[25] = system: MDA-MB-231
[26] = system: MDA-MB-435
[27] = system: MDA-N
[28] = system: MOLT-4
[29] = system: Malme-3M
[30] = system: NCI-H226
[31] = system: NCI-H23
[32] = system: NCI-H460
[33] = system: NCI-H522
[34] = system: NCI/ADR-RES
[35] = system: OVCAR-3
[36] = system: OVCAR-4
[37] = system: OVCAR-5
[38] = system: OVCAR-8
[39] = system: PC-3
[40] = system: RPMI-8226
[41] = system: RXF 393
[42] = system: SF-268
[43] = system: SF-295
[44] = system: SF-539
[45] = system: SK-MEL-28
[46] = system: SK-MEL-2
[47] = system: SK-MEL-5
[48] = system: SK-OV-3
[49] = system: SN12C
[50] = system: SNB-19
[51] = system: SNB-75
[52] = system: SR
[53] = system: SW-620
[54] = system: T47D
[55] = system: TK-10
[56] = system: U-251
[57] = system: UACC-257
[58] = system: UACC-62
[59] = system: UO-31

## COC(=O)[C@@H]1C[C@H]([Se]c2ccccc2)CN1S(=O)(=O)c1ccc(C)cc1
[1]
  GI50: > 100 µM (inactive)
[2]
  GI50: > 100 µM (inactive)
[3]
  GI50: 51.8 µM (inactive)
[4]
  GI50: > 100 µM (inactive)
[5]
  GI50: 98.2 µM (inactive)
[6]
  GI50: > 100 µM (inactive)
[7]
  GI50: 61 µM (inactive)
[8]
  GI50: 61.5 µM (inactive)
[9]
  GI50: > 100 µM (inactive)
[10]
  GI50: > 100 µM (inactive)
[11]
  GI50: > 100 µM (inactive)
[12]
  GI50: 67.3 µM (inactive)
[13]
  GI50: > 100 µM
[14]
  GI50: 36.3 µM (inactive)
[15]
  GI50: > 100 µM (inactive)
[16]
  GI50: > 100 µM (inactive)
[17]
  GI50: 49.7 µM (inactive)
[18]
  GI50: 60.7 µM (inactive)
[19]
  GI50: > 100 µM (inactive)
[20]
  GI50: 34.7 µM (inactive)
[21]
  GI50: 68.9 µM (inactive)
[22]
  GI50: > 100 µM (inactive)
[23]
  GI50: > 100 µM (inactive)
[24]
  GI50: 60.3 µM (inactive)
[25]
  GI50: > 100 µM (inactive)
[26]
  GI50: 47.1 µM (inactive)
[27]
  GI50: > 100 µM (inactive)
[28]
  GI50: 35.7 µM (inactive)
[29]
  GI50: > 100 µM (inactive)
[30]
  GI50: > 100 µM (inactive)
[31]
  GI50: > 100 µM (inactive)
[32]
  GI50: > 100 µM (inactive)
[33]
  GI50: 38.9 µM (inactive)
[34]
  GI50: 34.1 µM (inactive)
[35]
  GI50: 56 µM (inactive)
[36]
  GI50: 42.8 µM (inactive)
[37]
  GI50: > 100 µM (inactive)
[38]
  GI50: > 100 µM (inactive)
[39]
  GI50: 26.5 µM (inactive)
[40]
  GI50: 59.4 µM (inactive)
[41]
  GI50: 39.4 µM (inactive)
[42]
  GI50: 27.9 µM (inactive)
[43]
  GI50: 40.9 µM (inactive)
[44]
  GI50: > 100 µM (inactive)
[45]
  GI50: 76.2 µM (inactive)
[46]
  GI50: 21.4 µM (inactive)
[47]
  GI50: 45.2 µM (inactive)
[48]
  GI50: > 100 µM (inactive)
[49]
  GI50: > 100 µM (inactive)
[50]
  GI50: > 100 µM (inactive)
[51]
  GI50: 2.87 µM (inactive)
[52]
  GI50: 32.1 µM (inactive)
[53]
  GI50: > 100 µM (inactive)
[54]
  GI50: 35.7 µM (inactive)
[55]
  GI50: > 100 µM (inactive)
[56]
  GI50: 53 µM (inactive)
[57]
  GI50: > 100 µM (inactive)
[58]
  GI50: > 100 µM (inactive)
[59]
  GI50: 51.9 µM (inactive)

## C=C(C)C(=O)OC1CC2(C)OC2CC(OC(C)=O)/C(C)=C/C2OC(=O)C(=C)C21 (stereo not drawn)
[1]
  GI50: 2.22 µM (inactive)
[2]
  GI50: 12.9 µM (inactive)
[3]
  GI50: 19 µM (inactive)
[4]
  GI50: 1.49 µM (inactive)
[5]
  GI50: 1.09 µM (active)
[6]
  GI50: 2.53 µM (inactive)
[7]
  GI50: 0.0895 µM (active)
[8]
  GI50: 1.52 µM (inactive)
[9]
  GI50: 2.13 µM (inactive)
[10]
  GI50: 3.1 µM (inactive)
[11]
  GI50: 6.34 µM (inactive)
[12]
  GI50: 1.7 µM (inactive)
[13]
  GI50: 0.566 µM
[14]
  GI50: 0.207 µM (active)
[15]
  GI50: 13.1 µM (inactive)
[16]
  GI50: 3.64 µM (inactive)
[17]
  GI50: 1.31 µM (inactive)
[18]
  GI50: 2.3 µM (inactive)
[19]
  GI50: 4.17 µM (inactive)
[20]
  GI50: 0.56 µM (active)
[21]
  GI50: 11.2 µM (inactive)
[22]
  GI50: 2.73 µM (inactive)
[23]
  GI50: 3.01 µM (inactive)
[24]
  GI50: 2.33 µM (inactive)
[25]
  GI50: 6.49 µM (inactive)
[26]
  GI50: 1.18 µM (inactive)
[27]
  GI50: 2.73 µM (inactive)
[28]
  GI50: 0.441 µM (active)
[29]
  GI50: 0.573 µM (active)
[30]
  GI50: 17.6 µM (inactive)
[31]
  GI50: 2.76 µM (inactive)
[32]
  GI50: 1.73 µM (inactive)
[33]
  GI50: 0.124 µM (active)
[34]
  GI50: 2.68 µM (inactive)
[35]
  GI50: 2.26 µM (inactive)
[36]
  GI50: 9.48 µM (inactive)
[37]
  GI50: 5.83 µM (inactive)
[38]
  GI50: 2.03 µM (inactive)
[39]
  GI50: 9.08 µM (inactive)
[40]
  GI50: 0.349 µM (active)
[41]
  GI50: 2.04 µM (inactive)
[42]
  GI50: 2.12 µM (inactive)
[43]
  GI50: 16.2 µM (inactive)
[44]
  GI50: 2.82 µM (inactive)
[45]
  GI50: 0.724 µM (active)
[46]
  GI50: 5.37 µM (inactive)
[47]
  GI50: 8.2 µM (inactive)
[48]
  GI50: 29 µM (inactive)
[49]
  GI50: 2.52 µM (inactive)
[50]
  GI50: 15.2 µM (inactive)
[51]
  GI50: 15.5 µM (inactive)
[52]
  GI50: 1.08 µM (active)
[53]
  GI50: 0.426 µM (active)
[54]
  GI50: 3.48 µM (inactive)
[55]
  GI50: 3.45 µM (inactive)
[56]
  GI50: 12.5 µM (inactive)
[57]
  GI50: 6.5 µM (inactive)
[58]
  GI50: 4.57 µM (inactive)
[59]
  GI50: 2.68 µM (inactive)
